Assay results as given in ChEMBL document CHEMBL5150060 (J Med Chem, 2022).
The source made the active and inactive calls. No cut-off for these calls is given here.

Columns and labels:
[1] = Toxicity in C57BL/6 mouse assessed as change in spleen weight at 5 to 10 mg/kg, ip administered 5 days per week for 2 weeks by H and E staining based assay; assay type: organism-based; details: in vivo, 336 h, dose 5-10 mg/kg
[2] = Stability of compound in DMEM/DMSO/acetonitrile at pH 7.4 measured after 72 hrs by HPLC analysis; assay type: physicochemical; details: read-out: Stability
[3] = molecular target: T1, Histone deacetylase 8 (Homo sapiens) (UniProt Q9BY41); assay: Inhibition of HDAC8 in human Jurkat T cells assessed as upregulation of EOMES expression at 10 uM after 6 to 12 hrs by RT-qPCR analysis; assay type: cell-based; details: time 6-12 hrs
T1 sequence (whole entry): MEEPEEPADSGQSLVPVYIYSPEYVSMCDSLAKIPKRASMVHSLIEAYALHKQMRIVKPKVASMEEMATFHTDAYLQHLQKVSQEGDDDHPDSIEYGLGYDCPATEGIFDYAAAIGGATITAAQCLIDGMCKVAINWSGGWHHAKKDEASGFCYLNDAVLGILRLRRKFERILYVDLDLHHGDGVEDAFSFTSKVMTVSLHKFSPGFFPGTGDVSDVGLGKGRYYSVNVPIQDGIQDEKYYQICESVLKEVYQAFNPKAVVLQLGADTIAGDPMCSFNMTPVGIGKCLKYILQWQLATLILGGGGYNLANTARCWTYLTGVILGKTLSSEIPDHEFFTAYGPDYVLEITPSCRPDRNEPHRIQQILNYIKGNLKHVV

[4] = molecular target: T1, Histone deacetylase 8 (Homo sapiens); assay: Inhibition of HDAC8 in human Jurkat T cells assessed as increase in H3K27 acetylation at 10 uM after 6 hrs by Western blot analysis; assay type: cell-based
[5] = molecular target: T2, Protein deacetylase HDAC6 (Mus musculus) (UniProt Q9Z2V5); assay: Inhibition of HDAC6 in mouse spleen CD4+ T- lymphocytes assessed as increase in SMC3 acetylation level at 5 to 10 uM after 6 hrs by Western blot analysis; assay type: cell-based; details: CD4+ve Th, dose 5-10 µM
T2 sequence (whole entry): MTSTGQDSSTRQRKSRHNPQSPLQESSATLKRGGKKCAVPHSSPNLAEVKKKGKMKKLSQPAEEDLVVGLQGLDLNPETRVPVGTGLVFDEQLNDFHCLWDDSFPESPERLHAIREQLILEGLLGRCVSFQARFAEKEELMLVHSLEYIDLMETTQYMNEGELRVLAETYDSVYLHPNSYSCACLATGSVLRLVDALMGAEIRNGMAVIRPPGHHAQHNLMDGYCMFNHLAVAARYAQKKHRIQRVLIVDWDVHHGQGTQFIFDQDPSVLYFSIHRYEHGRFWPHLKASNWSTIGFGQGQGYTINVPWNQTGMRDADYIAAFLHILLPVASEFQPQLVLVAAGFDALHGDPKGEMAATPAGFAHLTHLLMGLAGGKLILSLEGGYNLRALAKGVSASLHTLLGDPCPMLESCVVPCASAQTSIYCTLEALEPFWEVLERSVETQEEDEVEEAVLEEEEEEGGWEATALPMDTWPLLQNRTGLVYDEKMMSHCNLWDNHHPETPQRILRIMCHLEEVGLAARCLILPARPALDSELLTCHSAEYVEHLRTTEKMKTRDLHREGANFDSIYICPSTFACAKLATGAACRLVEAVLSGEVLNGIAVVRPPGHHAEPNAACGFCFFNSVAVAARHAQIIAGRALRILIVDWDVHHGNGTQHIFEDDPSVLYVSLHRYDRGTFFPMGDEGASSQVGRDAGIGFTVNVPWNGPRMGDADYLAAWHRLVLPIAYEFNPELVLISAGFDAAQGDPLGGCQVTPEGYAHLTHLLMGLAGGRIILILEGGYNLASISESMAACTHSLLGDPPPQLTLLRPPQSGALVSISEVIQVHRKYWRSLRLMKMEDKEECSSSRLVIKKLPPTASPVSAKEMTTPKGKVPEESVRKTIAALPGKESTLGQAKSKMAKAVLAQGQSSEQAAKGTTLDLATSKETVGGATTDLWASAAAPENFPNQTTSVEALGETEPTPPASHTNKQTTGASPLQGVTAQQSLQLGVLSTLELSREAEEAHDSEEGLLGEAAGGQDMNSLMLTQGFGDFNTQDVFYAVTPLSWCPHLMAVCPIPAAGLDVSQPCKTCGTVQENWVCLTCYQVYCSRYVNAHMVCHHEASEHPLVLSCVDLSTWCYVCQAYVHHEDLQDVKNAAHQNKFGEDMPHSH

[6] = molecular target: T1, Histone deacetylase 8 (Homo sapiens); assay: Inhibition of HDAC8 in human Jurkat T cells assessed as upregulation of BCL6 expression after 6 hrs by RT-qPCR analysis; assay type: cell-based; details: dose 0.1-10 µM, DDE = dose-dependent effect
[7] = molecular target: T1, Histone deacetylase 8 (Homo sapiens); assay: Inhibition of HDAC8 in human Jurkat T cells assessed as upregulation of IL15 expression after 6 hrs by RT-qPCR analysis; assay type: cell-based; details: dose 0.1-10 µM, DDE = dose-dependent effect
Histone deacetylase 4 = Histone deacetylase 4 (Homo sapiens, UniProt P56524); assay: Inhibition of HDAC4 (unknown origin)
Histone deacetylase 4, sequence (P56524 whole entry): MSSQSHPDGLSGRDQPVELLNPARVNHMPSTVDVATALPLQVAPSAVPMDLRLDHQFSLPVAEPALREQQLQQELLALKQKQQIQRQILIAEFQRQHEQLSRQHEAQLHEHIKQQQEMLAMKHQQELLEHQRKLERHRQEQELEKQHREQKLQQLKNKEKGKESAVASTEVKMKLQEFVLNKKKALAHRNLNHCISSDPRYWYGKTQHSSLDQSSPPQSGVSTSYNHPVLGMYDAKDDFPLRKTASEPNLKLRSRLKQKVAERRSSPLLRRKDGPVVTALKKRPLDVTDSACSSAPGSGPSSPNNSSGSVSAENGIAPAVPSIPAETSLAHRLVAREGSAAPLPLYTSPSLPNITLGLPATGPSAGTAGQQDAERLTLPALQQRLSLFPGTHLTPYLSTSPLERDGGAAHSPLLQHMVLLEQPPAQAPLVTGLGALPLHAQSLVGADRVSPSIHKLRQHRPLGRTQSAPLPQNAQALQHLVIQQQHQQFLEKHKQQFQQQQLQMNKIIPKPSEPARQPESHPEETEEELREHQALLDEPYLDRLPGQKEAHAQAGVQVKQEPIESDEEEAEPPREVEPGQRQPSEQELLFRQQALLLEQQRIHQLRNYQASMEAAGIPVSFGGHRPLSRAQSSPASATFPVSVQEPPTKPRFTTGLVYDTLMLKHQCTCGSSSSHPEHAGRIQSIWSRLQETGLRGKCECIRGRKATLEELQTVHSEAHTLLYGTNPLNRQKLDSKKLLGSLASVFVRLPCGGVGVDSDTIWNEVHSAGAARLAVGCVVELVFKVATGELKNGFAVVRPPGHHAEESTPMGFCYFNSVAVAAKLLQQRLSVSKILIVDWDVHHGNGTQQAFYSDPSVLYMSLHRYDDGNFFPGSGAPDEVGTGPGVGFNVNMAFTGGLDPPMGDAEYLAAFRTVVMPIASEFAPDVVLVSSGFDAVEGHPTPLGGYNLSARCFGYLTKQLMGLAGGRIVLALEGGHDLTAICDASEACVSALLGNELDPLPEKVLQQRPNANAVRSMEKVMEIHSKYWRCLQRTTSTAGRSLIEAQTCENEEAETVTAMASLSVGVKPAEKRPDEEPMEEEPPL

[8] = Toxicity in C57BL/6 mouse assessed as change in lung weight at 5 to 10 mg/kg, ip administered 5 days per week for 2 weeks by H and E staining based assay; assay type: organism-based; details: in vivo, 336 h, dose 5-10 mg/kg
Histone deacetylase 1 = Histone deacetylase 1 (Homo sapiens, UniProt Q13547); assay: Inhibition of recombinant human HDAC1 using p53 (Ac-RHKK(Acetyl)-AMC) as substrate preincubated for 5 mins followed by substrate addition and measured after 90 mins by fluorescence based analysis
Histone deacetylase 1, sequence (Q13547 whole entry): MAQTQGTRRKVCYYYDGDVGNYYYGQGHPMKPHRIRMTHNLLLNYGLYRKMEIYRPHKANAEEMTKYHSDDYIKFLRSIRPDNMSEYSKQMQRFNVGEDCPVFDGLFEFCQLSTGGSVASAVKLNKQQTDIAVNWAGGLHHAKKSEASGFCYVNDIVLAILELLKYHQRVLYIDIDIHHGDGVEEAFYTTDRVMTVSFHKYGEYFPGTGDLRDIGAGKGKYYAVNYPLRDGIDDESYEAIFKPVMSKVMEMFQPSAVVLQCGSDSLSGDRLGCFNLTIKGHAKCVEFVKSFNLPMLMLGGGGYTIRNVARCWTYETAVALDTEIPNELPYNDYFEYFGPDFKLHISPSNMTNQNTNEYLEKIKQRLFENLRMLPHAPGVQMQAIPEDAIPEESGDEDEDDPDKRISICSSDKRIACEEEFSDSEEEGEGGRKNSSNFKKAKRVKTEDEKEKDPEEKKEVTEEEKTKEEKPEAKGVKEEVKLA

[9] = molecular target: T1, Histone deacetylase 8 (Homo sapiens); assay: Inhibition of HDAC8 in human Jurkat T cells assessed as upregulation of KLRG expression at 10 uM after 6 to 12 hrs by RT-qPCR analysis; assay type: cell-based; details: time 6-12 hrs
[10] = Stability of compound in DMEM/DMSO/acetonitrile at pH 7.4 measured after 6 hrs by HPLC analysis; assay type: physicochemical; details: read-out: Stability
[11] = molecular target: T1, Histone deacetylase 8 (Homo sapiens); assay: Inhibition of HDAC8 in human Jurkat T cells assessed as upregulation of KLRG1 expression after 6 hrs by RT-qPCR analysis; assay type: cell-based; details: dose 0.1-10 µM, DDE = dose-dependent effect

Question: Which Activity [1] does the source give for `CCCCCCNNC(=O)c1ccc(-c2ccc(CNC(C)=O)cc2)cc1` here?
Answer: Non-Toxic

Question: And the remaining at 72 h [2]?
Answer: 103%

Question: What about the inhibition [3] of the same molecule?
Answer: Active

Question: What about the inhibition [4] of the same molecule?
Answer: Active

Question: And the inhibition [5]?
Answer: Active

Question: What about the inhibition [6] of the same molecule?
Answer: Dde

Question: What about the inhibition [7] of the same molecule?
Answer: Dde

Question: And the IC50 (Histone deacetylase 4)?
Answer: > 20000 nM

Question: And the Activity [8]?
Answer: Non-Toxic

Question: What about the IC50 (Histone deacetylase 1) of the same molecule?
Answer: 1800 nM

Question: And the inhibition [9]?
Answer: Active

Question: And the remaining at 6 h [10]?
Answer: 103%

Question: What about the inhibition [11] of the same molecule?
Answer: Dde
